The values below come from US10342796B2, “Acrylanilide derivative, preparation method, and applications thereof in pharmacy” (Ancureall Pharmaceutical (Shanghai) Co., Ltd., priority 2015, dated 2019).

Molecules are shown by their SMILES. Read-outs that look alike come from different tables or passages of the source.

Assay in all cases: Growth inhibition GI50 in vitro (CCK8/MTT, 72 h)
Common to all, as to assay type: cell-based, human

The test system of one assay is H1975 (EGFR L858R/T790M). The settings on record: EGFR mutant cell line, range of GI50, read-out: GI50 H1975.
Another assay concerns HCC827 (EGFR dE746-A750). The settings on record: EGFR mutant cell line, range of GI50, read-out: GI50 HCC827.
A further assay concerns PC-9 (EGFR dE746-A750). To be noted: EGFR mutant cell line, range of GI50, read-out: GI50 PC-9.
The subject of assay [1] is PC-9ER (EGFR delE746-A750/T790M). To be noted: EGFR mutant cell line, range of GI50, read-out: GI50 PC9ER.
The next assay relates to N87 (HER2 Amp). To be noted: HER2 positive cell line, range of GI50, read-out: GI50 N87.
In the next assay the test system is AU565 (Her2 amp). The settings on record: HER2 positive cell line, range of GI50, read-out: GI50 AU-565.
The subject of the next assay is SK-BR-3 (Her2 amp). To be noted: HER2 positive cell line, range of GI50, read-out: GI50 SK-BR-3.
Assay [2] relates to A431 (EGFR WT, amplification and high expression). To be noted: EGFR wild type cell line, range of GI50, read-out: GI50 A431.
Another assay deals with A549 (EGFR WT). To be noted: EGFR wild type cell line, range of GI50, read-out: GI50 A549.
For assay [3], the system named is H1299 (EGFR wt, Nras Q61K). To be noted: EGFR wild type cell line, range of GI50, read-out: GI50 H1299.
For assay [4], the system named is H460 (EGFR wt, Kras G61H). To be noted: EGFR wild type cell line, range of GI50, read-out: GI50 H460.

In general, GI50 refers to the concentration giving 50% growth inhibition.

Regarding `C=CC(=O)Nc1cc(Nc2nccc(-n3ccc4cc(OC)ccc43)n2)c(OC)cc1N(C)CCN(C)C` [Compound 78, N-(5-(4-(5-methoxyl-1H-indol-1-yl)-pyrimidin-2-ylamino)-2-((2-dimethylamino-ethyl)-methyl-amino)-4-methoxyl-phenyl)-acrylamide], the GI50 was below 10 nM in the assay with H1975 (EGFR L858R/T790M) (Homo sapiens, NCI-H1975); 10 to 100 nM in the assay on HCC827 (EGFR dE746-A750) (Homo sapiens, HCC827); 10 to 100 nM in the assay on PC-9 (EGFR dE746-A750) (Homo sapiens); 10 to 100 nM in assay [1] (Homo sapiens, PC-9/ER); below 10 nM in the assay on N87 (HER2 Amp) (Homo sapiens); 10 to 100 nM with AU565 (Her2 amp) (Homo sapiens, AU565). In addition, the GI50 in the assay on SK-BR-3 (Her2 amp) (Homo sapiens, SK-BR-3) is 10 to 100 nM; in assay [2] (Homo sapiens, A-431), 100 to 1000 nM; in the assay with A549 (EGFR WT) (Homo sapiens, A549), above 1000 nM; in assay [3] (Homo sapiens, NCI-H1299), above 1000 nM; in assay [4] (Homo sapiens, NCI-H460), above 1000 nM.
On to `C=CC(=O)Nc1cc(Nc2cc(Nc3cccc(Br)c3)ncn2)c(OC)cc1N(C)CCN(C)C` [Compound 133, N-(5-(6-(3-bromophenylamino)-pyrimidin-4-ylamino)-2-((2-dimethylamino-ethyl)-methyl-amino)-4-methoxyl-phenyl)-acrylamide], for which the GI50 with H1975 (EGFR L858R/T790M) (Homo sapiens, NCI-H1975) was below 10 nM; in the assay with HCC827 (EGFR dE746-A750) (Homo sapiens, HCC827), below 10 nM; with PC-9 (EGFR dE746-A750) (Homo sapiens), below 10 nM; in assay [1] (Homo sapiens, PC-9/ER), below 10 nM; in the assay with N87 (HER2 Amp) (Homo sapiens), below 10 nM; with AU565 (Her2 amp) (Homo sapiens, AU565), below 10 nM. Moreover, the GI50 in the assay with SK-BR-3 (Her2 amp) (Homo sapiens, SK-BR-3) is below 10 nM; in assay [2] (Homo sapiens, A-431) it was 10 to 100 nM; in the assay with A549 (EGFR WT) (Homo sapiens, A549), above 1000 nM; in assay [3] (Homo sapiens, NCI-H1299) it was above 1000 nM; in assay [4] (Homo sapiens, NCI-H460), above 1000 nM.
Consider `C=CC(=O)Nc1cc(Nc2nccc(-n3ccc4ccc(C)cc43)n2)c(OC)cc1N(C)CCN(C)C` [Compound 59], for which the concentration for 50% growth inhibition (GI50) in the assay on H1975 (EGFR L858R/T790M) (Homo sapiens, NCI-H1975) fell in the range of 10 to 100 nM; in the assay with HCC827 (EGFR dE746-A750) (Homo sapiens, HCC827), 10 to 100 nM; in the assay with PC-9 (EGFR dE746-A750) (Homo sapiens) it was 10 to 100 nM; in [1] (Homo sapiens, PC-9/ER), 10 to 100 nM; in the assay on N87 (HER2 Amp) (Homo sapiens), 100 to 1000 nM; in the assay on AU565 (Her2 amp) (Homo sapiens, AU565), 100 to 1000 nM. The GI50 with SK-BR-3 (Her2 amp) (Homo sapiens, SK-BR-3) is 100 to 1000 nM; in [2] (Homo sapiens, A-431), 100 to 1000 nM; in the assay on A549 (EGFR WT) (Homo sapiens, A549) it was above 1000 nM; in assay [3] (Homo sapiens, NCI-H1299), above 1000 nM; in assay [4] (Homo sapiens, NCI-H460), above 1000 nM.
On to `C=CC(=O)Nc1cc(Nc2nccc(-n3ccc4cc(C)ccc43)n2)c(OC)cc1N(C)CCN(C)C` [Compound 77, N-(5-(4-(5-methyl-1H-indol-1-yl)-pyrimidin-2-ylamino)-2-((2-dimethylamino-ethyl)-methyl-amino)-4-methoxyl-phenyl)-acrylamide], for which the GI50 in the assay on H1975 (EGFR L858R/T790M) (Homo sapiens, NCI-H1975) is 10 to 100 nM; in the assay with HCC827 (EGFR dE746-A750) (Homo sapiens, HCC827), 100 to 1000 nM; with PC-9 (EGFR dE746-A750) (Homo sapiens), 100 to 1000 nM; in assay [1] (Homo sapiens, PC-9/ER), 10 to 100 nM; in the assay on N87 (HER2 Amp) (Homo sapiens) it was 100 to 1000 nM; in the assay with AU565 (Her2 amp) (Homo sapiens, AU565) it was 100 to 1000 nM. For the same compound, the GI50 in the assay with SK-BR-3 (Her2 amp) (Homo sapiens, SK-BR-3) was 100 to 1000 nM; in assay [2] (Homo sapiens, A-431) it was 100 to 1000 nM; with A549 (EGFR WT) (Homo sapiens, A549), above 1000 nM; in [3] (Homo sapiens, NCI-H1299) it was above 1000 nM; in assay [4] (Homo sapiens, NCI-H460), above 1000 nM.
Consider `C=CC(=O)Nc1cc(Nc2nccc(-n3nnc4ccccc43)n2)c(OC)cc1N(C)CCN(C)C` [Compound 107], for which the GI50 lay in the range of 10 to 100 nM in the assay with H1975 (EGFR L858R/T790M) (Homo sapiens, NCI-H1975); 10 to 100 nM with HCC827 (EGFR dE746-A750) (Homo sapiens, HCC827); 10 to 100 nM with PC-9 (EGFR dE746-A750) (Homo sapiens); 10 to 100 nM in assay [1] (Homo sapiens, PC-9/ER); 10 to 100 nM in the assay on N87 (HER2 Amp) (Homo sapiens); 100 to 1000 nM with AU565 (Her2 amp) (Homo sapiens, AU565). The GI50 was 10 to 100 nM in the assay on SK-BR-3 (Her2 amp) (Homo sapiens, SK-BR-3); above 1000 nM in [2] (Homo sapiens, A-431); above 1000 nM with A549 (EGFR WT) (Homo sapiens, A549); above 1000 nM in assay [3] (Homo sapiens, NCI-H1299); above 1000 nM in [4] (Homo sapiens, NCI-H460).
Take `C#Cc1cccc(Nc2ccnc(Nc3cc(NC(=O)C=C)c(N(C)CCN(C)C)cc3OC)n2)c1` [Compound 8, N-(5-(4-(3-acetenyl-phenylamino)-pyrimidin-2-ylamino)-2-(2-(dimethylamino-ethyl)-methyl-amino)-4-methoxyl-phenyl)-acrylamide]: the GI50 with H1975 (EGFR L858R/T790M) is 10 to 100 nM; with HCC827 (EGFR dE746-A750), 10 to 100 nM; with PC-9 (EGFR dE746-A750), 10 to 100 nM; in assay [1] it was below 10 nM; in the assay on N87 (HER2 Amp) it was 10 to 100 nM; in the assay with AU565 (Her2 amp), 100 to 1000 nM. In addition, the GI50 in the assay on SK-BR-3 (Her2 amp) was 10 to 100 nM; in assay [2], 100 to 1000 nM; in the assay on A549 (EGFR WT) it was above 1000 nM; in assay [3], above 1000 nM; in assay [4], above 1000 nM.
